Legend:
WA09 hES cells [1] = assay: Pathway enrichment analysis of annotated mass features on KEGG human metabolic networks (Example 8); assay type: cell-based; conditions: across dose levels; positive and negative features
Protocol: Pathways enrichment analysis was performed by mapping annotated mass features for each experimental compound to human metabolic networks using KEGG compound ids. Hypergeometric p-values and false discovery rates (FDR) were used to assign a quantitative measure of statistical significance to each network. Features derived from ESI negative and positive mode for each experimental compound were pooled for this analysis. False positive results can be generated by isobaric compounds that generate multiple “hits” in a network from the same mass, so unique masses instead of unique compound ids were used for these calculations. The relevant parameters used to calculate hypergeometric p-values for each network were: the number of unique mass “hits”, the number of unique masses in the network, and the total number of unique masses in all of the human networks in the KEGG database. For each experimental compound, the p-values for the derived networks were converted to FDR using the Benjamini and Hochberg (1995) correction.
Feature Selection was performed on a per compound basis using a one-way anova evaluating the difference of dose level means and on a per dose basis using Welch T-tests and PLS-DA VIP score. […] If a feature was selected as interesting in a drug or dose level comparison it was then evaluated experiment wide for fold changes. Following feature selection only significant features putatively annotated as mammalian in origin and present on KEGG network diagrams were further evaluated. […] These selection criteria focused the analysis on biochemical pathways.
Following selection, features were passed through a quality control evaluation of extracted ion chromatograms (EICs) to confirm the validity of individual mass features. Features passing quality control were further evaluated to confirm estimated fold changes. After removing poor quality and duplicate features, the remaining ESI positive and ESI negative mode features were combined into a unified dataset for evaluation of pathway enrichment by treatment.

[2] = test system: WA09 human embryonic stem (hES) cells; assay: PLS-DA prediction of teratogenicity from secretome of treated hES cells (Example 9)
Description: These included 11 known teratogens and 11 known non-teratogens. The current model is based on the mean fold change (treatment versus its associated intra-experimental control) of 15 metabolites common among the secretome of hES cells treated with pharmaceutical agents and unknown chemical compounds.

WA09 hES cells [3] = assay: Metabolomics of hES cells dosed in 96-well plates at three dose levels (Example 8); assay type: cell-based, human
Protocol: For metabolomic analysis, hES cells were dosed at the three concentrations for each chemical compound based on the cell viability data. Media controls (no cells), dosed media controls (no cells with dosed media), and controls (cells with undosed media) were also included in the experimental design (FIG. 1). Spent media was collected following a three day dosing period. The collected media was immediately quenched in acetonitrile then stored at −80° C. until later analysis.
In both the viability and metabolomics steps, 96-well plates were seeded with 250,000 cells/well of WA09 hES cells. These cells were “dosed” for three days. Each day for three days, the spent media was removed and replaced with […] media containing the designated compound. Each compound stock solution was made in DMSO and each final solution used to dose hES cells contained 0.1% DMSO. […]
Samples were analyzed in both ESI positive and ESI negative modes on an Agilent QTOF instrument, operated in high resolution, extended dynamic range mode. […]
Peak picking and feature creation were performed using the open source software library XCMS. Mass features (peaks) were detected using the centwave algorithm. […]
This filter selects against spurious low abundance features at the level of detection that are not reproducibly measured, and features that may not have peak shapes amenable to reproducible detection and/or integration. […]

[4] = DevTox pharmaceutical, high dose (H = 10x circulating dose)
[5] = DevTox pharmaceutical, low dose (L = 0.1x circulating dose)
[6] = EPA compounds, high dose level (H)
[7] = EPA compounds, low dose level (L)
[8] = EPA compounds, medium dose level (M)

`CN(C)CCOC(C)(c1ccccc1)c1ccccn1` (stereo not drawn) [Doxylamine] was tested, and the “Number of unique KEGG ID annotations: Alanine, aspartate and glutamate metabolism” value (WA09 hES cells [1]) was 1, the “Number of unique KEGG ID annotations: Arginine and proline metabolism” value (WA09 hES cells [1]) was 1 and the “Number of unique KEGG ID annotations: Ascorbate and aldarate metabolism” value (WA09 hES cells [1]) was 2. For the same compound, the “Number of unique KEGG ID annotations: Citrate cycle (TCA cycle)” value (WA09 hES cells [1]) was 1, the “Number of unique KEGG ID annotations: Cysteine and methionine metabolism” value (WA09 hES cells [1]) was 2 and the “Number of unique KEGG ID annotations: Galactose metabolism” value (WA09 hES cells [1]) was 2. For the same compound, the “Number of unique KEGG ID annotations: Glutathione metabolism” value (WA09 hES cells [1]) was 1, the “Number of unique KEGG ID annotations: Glyoxylate and dicarboxylate metabolism” value (WA09 hES cells [1]) was 3 and the “Number of unique KEGG ID annotations: Nicotinate and nicotinamide metabolism” value (WA09 hES cells [1]) was 5. The “Number of unique KEGG ID annotations: Pantothenate and CoA biosynthesis” value (WA09 hES cells [1]) was 3, the “Number of unique KEGG ID annotations: Pentose and glucuronate interconversions” value (WA09 hES cells [1]) was 3 and the “Number of unique KEGG ID annotations: Pentose phosphate pathway” value (WA09 hES cells [1]) was 1. For the same compound, the “Number of unique KEGG ID annotations: Propanoate metabolism” value (WA09 hES cells [1]) was 3, the “Number of unique KEGG ID annotations: Pyruvate metabolism” value (WA09 hES cells [1]) was 6 and the “Number of unique KEGG ID annotations: Vitamin B6 metabolism” value (WA09 hES cells [1]) was 3. For the same compound, the PLS-DA classification ([2]; 0.38 μM) was “not classified as a teratogen”, the “% Non (PLS-DA class probability non-teratogen)” value [2, 4] was 0.38 and the “% Ter (PLS-DA class probability teratogen)” value [2, 4] was 0.62. For the same compound, the “Confidence (difference between class probabilities)” value [2, 4] was 0.24, the Prediction [2, 4] was “Ter” and the “% Non (PLS-DA class probability non-teratogen)” value [2, 5] was 0.58. For the same compound, the “% Ter (PLS-DA class probability teratogen)” value [2, 5] was 0.42, the “Confidence (difference between class probabilities)” value [2, 5] was 0.16 and the Prediction [2, 5] was “Non”. The “% Non (PLS-DA generated class probability)” value [2, 6] was 0.45, the “% Ter (PLS-DA generated class probability)” value [2, 6] was 0.55 and the Prediction [2, 6] was “Ter”. The “Confidence (difference between class probabilities)” value ([2]; EPA compounds, high dose level (H), values less than 0.1 inconclusive) was 0.1, the “% Non (PLS-DA generated class probability)” value [2, 7] was 0.41 and the “% Ter (PLS-DA generated class probability)” value [2, 7] was 0.59. For the same compound, the Prediction [2, 7] was “Ter”, the “Confidence (difference between class probabilities)” value ([2]; EPA compounds, low dose level (L), values less than 0.1 inconclusive) was 0.18 and the “% Non (PLS-DA generated class probability)” value [2, 8] was 0.44. For the same compound, the “% Ter (PLS-DA generated class probability)” value [2, 8] was 0.56, the Prediction [2, 8] was “Ter” and the “Confidence (difference between class probabilities)” value ([2]; EPA compounds, medium dose level (M), values less than 0.1 inconclusive) was 0.12. For the same compound, the “Teratogenicity Classification” value ([2]; [Doxylamine] 0.038 μm, devTox low) was “Non”, the “Teratogenicity Classification” value ([2]; [Doxylamine] 0.38 μm, devTox medium) was “Non” and the “Teratogenicity Classification” value ([2]; [Doxylamine] 1 μm, EPA low) was “Ter”. The “Teratogenicity Classification” value ([2]; [Doxylamine] 3.8 μm, devTox high) was “Ter”, the “Teratogenicity Classification” value ([2]; [Doxylamine] 10 μm, EPA medium) was “Ter” and the “Teratogenicity Classification” value ([2]; [Doxylamine] 100 μm, EPA high) was “Ter”. For the same compound, the “PLS-DA classification, these studies (EPA set)” value ([2]; all three concentrations (low, medium, and high)) was “teratogen”, the “PLS-DA classification, developmental toxicity assay (Table 11)” value ([2]; high concentration) was “teratogen” and the “PLS-DA classification, developmental toxicity assay (Table 11)” value ([2]; low and medium dose) was “non-teratogen”. For the same compound, the “PLS-DA classification of EPA-provided chemical agents” value ([2]; overall conclusion) was “potential teratogens”, the “Dimethylarginine (DMA) change” value (WA09 hES cells [3]; at least two dose levels) was “increased secretion” and the Malic acid change (WA09 hES cells [3]; high dose levels) was “extreme fold changes”.
